Results: patent publication US20250145606A1 (Arcus Biosciences, Inc., priority 2023, published 2025)
Where two headings read alike, the source gives them in different places.

Tests used:
FLT3 = FLT3 (Homo sapiens (Human), UniProt P36888); test: Inhibition of FLT3 kinase activity (HTRF KinEASE-TK); assay type: biochemical; conditions: biochemical
Method: Inhibition of c-Kit, PDGFRα, PDGFRβ, CSFIR and FLT3 Kinase Activity
Compounds were evaluated to determine the potency with which they inhibit the kinase activity of the following panel of tyrosine kinases: c-Kit (SignalChem, Product #: K06-11BG), PDGFRα (SignalChem, Product #: P12-18G), PDGFRβ (SignalChem, Product #: P13-11G), CSFIR (SignalChem, Product #: C74-11G) and FLT3 (Invitrogen, Product #: PR4666C). Activity was determined as a function of phosphorylated biotinylated TK peptide generated by the transfer of phosphate from ATP as measured by the use of the HTRF KinEASE-TK assay kit (Cisbio, Product #: 62TKOPEJ). Levels of phosphorylated biotinylated TK peptide (Part 61TKOBLC of KinEASE assay kit) are quantified by its capture by phosphor-TK-Antibody-Cryptate (Part of KinEASE assay kit) and XL665-labeled Streptavidin (Part 610SAXLG of KinEASE assay kit) followed by measurement of Time-Resolved Fluorescence Resonance Energy Transfer (TR-FRET) signal. On the day of the assay, compounds were solubilized in DMSO and dispensed into a 384-well white Opti-plate (PerkinElmer, catalog #6007290) to generate a 22 point 1:2 titration. Enzyme solution was prepared for each of the tyrosine kinases in 50 mM HEPES, pH 7.4, 5 mM MgCl2 for c-Kit or 10 mM MgCl2 for FLT3, CSFIR, PDGFRa and PDGFRβ, 2 mM MnCl2, 0.01% Brij-35 and 0.01% BSA. Working enzyme concentrations were prepared for c-Kit at 2 nM (2×), PDGFRa and PDGFRß at 10 nM (2×), CSFIR at 2 nM (2×) and FLT3 at 0.4 nM (2×). Five microliters of enzyme dilution of each tyrosine kinase were added to their respective 384-well white Opti-plate pre-dispensed with compound and allowed to incubate for 1 h at rt. Utilizing the same enzyme buffer recipe, 2x substrate mixes were prepared for each enzyme as follows: For c-Kit, 1.6 μM (2×) TK substrate and 16 μM (2×) ATP (Promega, catalog #V915). For PDGFRα, 3.2 μM TK substrate and 1 μM ATP. For PDGFRβ, 3.2 μM TK substrate and 40 μM ATP. For CSFIR, […] TK substrate and 20 μM ATP. For FLT3, 3.2 μM TK substrate and 100 μM ATP. Reactions were initiated by addition of 5 μL of the respective 2x substrate mix to each well of the plates containing the respective tyrosine kinase enzymes and were allowed to proceed for 120 minutes at rt, except for FLT3, the reaction time is 45 min. Following the reaction, 10 μL of detection mix consisting of 0.2 μM (2×) of Streptavidin-XL665 and 2 μM (2×) of TK-Antibody-Cryptate prepared in detection buffer (Part 62SDBRDF of KinEASE assay kit) was added and then allowed to incubate for 60 min. The TR-FRET signal was quantified by measuring the ratio of emission at 665 nm to 620 nm after excitation at 320 nm by reading on a PerkinElmer Envision multimode reader. Compound potencies (IC50 values) were determined using a standard 4-parameter non-linear regression fit.

CSF1R = CSF1R (Homo sapiens (Human), UniProt P07333); test: Inhibition of CSF1R kinase activity (HTRF KinEASE-TK); conditions: biochemical
Chain of CSF1R (P07333 20-972): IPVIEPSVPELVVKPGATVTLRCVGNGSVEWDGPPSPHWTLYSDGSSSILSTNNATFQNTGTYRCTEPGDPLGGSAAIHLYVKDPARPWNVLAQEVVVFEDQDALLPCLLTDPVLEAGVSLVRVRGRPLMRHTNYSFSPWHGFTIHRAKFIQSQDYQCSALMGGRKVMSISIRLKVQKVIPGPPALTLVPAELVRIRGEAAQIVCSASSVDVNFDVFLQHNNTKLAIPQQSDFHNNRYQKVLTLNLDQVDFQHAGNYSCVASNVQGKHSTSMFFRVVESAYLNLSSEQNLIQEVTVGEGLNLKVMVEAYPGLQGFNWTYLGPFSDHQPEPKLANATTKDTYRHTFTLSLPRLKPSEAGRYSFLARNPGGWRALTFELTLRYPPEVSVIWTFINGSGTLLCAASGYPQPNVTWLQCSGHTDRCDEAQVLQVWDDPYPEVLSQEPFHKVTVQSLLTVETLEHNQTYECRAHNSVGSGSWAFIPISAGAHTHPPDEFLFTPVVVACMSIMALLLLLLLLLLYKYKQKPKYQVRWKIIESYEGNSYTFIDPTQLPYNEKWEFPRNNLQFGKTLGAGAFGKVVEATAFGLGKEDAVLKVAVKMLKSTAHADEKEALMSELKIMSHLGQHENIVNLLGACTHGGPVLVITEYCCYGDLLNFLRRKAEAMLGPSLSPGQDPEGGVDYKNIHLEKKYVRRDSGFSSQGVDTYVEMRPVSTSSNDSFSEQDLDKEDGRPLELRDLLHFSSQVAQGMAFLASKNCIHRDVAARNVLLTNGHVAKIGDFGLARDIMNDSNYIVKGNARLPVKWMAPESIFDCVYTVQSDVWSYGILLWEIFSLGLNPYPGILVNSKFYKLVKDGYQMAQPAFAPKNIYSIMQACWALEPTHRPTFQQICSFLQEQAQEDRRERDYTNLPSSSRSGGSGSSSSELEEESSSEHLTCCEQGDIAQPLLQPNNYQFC
In short: (§1)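 Recombinant kinases (2 nM CSF1R and c-Kit, 10 nM PDGFRα/β, 2× working) preincubated 1 h with compound in 50 mM HEPES pH 7.4, 5 mM MgCl2 (c-Kit) or 10 mM (others), 2 mM MnCl2; 2× ATP: c-Kit 16 μM, PDGFRα 1 μM, PDGFRβ 40 μM, CSF1R 20 μM. 120 min reaction at rt; TR-FRET 665/620 nm; IC50 by 4-parameter fit.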

PDGFRβ = PDGFRβ (Homo sapiens (Human), UniProt P09619); test: Inhibition of PDGFRβ kinase activity (HTRF KinEASE-TK); conditions: biochemical
Chain of PDGFRβ (P09619 33-1106): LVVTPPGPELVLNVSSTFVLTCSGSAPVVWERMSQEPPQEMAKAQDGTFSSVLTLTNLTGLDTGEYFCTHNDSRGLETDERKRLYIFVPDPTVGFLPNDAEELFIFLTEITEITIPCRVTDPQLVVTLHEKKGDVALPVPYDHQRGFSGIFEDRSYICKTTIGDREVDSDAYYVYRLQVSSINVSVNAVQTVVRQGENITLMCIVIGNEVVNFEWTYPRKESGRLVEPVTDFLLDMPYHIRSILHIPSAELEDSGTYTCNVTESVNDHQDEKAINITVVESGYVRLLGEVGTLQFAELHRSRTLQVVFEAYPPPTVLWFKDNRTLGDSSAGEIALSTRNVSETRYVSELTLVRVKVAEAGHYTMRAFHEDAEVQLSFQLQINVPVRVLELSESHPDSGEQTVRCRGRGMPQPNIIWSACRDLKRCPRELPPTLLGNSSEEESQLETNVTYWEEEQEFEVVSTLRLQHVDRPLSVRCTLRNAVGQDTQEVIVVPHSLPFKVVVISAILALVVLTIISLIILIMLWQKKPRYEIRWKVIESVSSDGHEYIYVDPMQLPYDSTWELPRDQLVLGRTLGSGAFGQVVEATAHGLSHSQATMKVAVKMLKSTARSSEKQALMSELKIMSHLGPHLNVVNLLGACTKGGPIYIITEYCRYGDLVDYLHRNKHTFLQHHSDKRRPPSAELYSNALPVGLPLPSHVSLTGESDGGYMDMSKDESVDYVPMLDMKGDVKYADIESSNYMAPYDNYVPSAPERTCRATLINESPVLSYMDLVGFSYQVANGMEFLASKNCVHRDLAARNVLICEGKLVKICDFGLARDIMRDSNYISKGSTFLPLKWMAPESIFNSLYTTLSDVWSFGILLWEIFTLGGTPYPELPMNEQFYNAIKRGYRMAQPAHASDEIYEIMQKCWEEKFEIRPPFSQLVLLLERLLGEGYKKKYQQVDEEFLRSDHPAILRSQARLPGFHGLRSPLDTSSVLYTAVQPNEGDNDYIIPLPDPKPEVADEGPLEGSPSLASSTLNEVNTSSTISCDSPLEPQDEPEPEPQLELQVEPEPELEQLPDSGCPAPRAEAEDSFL
In short: as §1

[1] = tested on: Phospho-KIT (Y703) in M07e cells; test: Phospho-KIT (Y703) cellular assay in M07e cells; assay type: cell-based; conditions: M-07e
In short: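 Serum-starved M07e cells preincubated 50 min at 37° C with 11-point half-log compound titration, then stimulated 10 min with SCF at 90.9 ng/mL final. Fixed, permeabilized cells stained for phospho-KIT Y703 and read by flow cytometry (live-gated geometric mean); IC50 by 4-parameter fit normalized to DMSO and positive control.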

PDGFRα = PDGFRα (Homo sapiens (Human), UniProt P16234); test: Inhibition of PDGFRα kinase activity (HTRF KinEASE-TK); conditions: biochemical
Chain of PDGFRα (P16234 24-1089): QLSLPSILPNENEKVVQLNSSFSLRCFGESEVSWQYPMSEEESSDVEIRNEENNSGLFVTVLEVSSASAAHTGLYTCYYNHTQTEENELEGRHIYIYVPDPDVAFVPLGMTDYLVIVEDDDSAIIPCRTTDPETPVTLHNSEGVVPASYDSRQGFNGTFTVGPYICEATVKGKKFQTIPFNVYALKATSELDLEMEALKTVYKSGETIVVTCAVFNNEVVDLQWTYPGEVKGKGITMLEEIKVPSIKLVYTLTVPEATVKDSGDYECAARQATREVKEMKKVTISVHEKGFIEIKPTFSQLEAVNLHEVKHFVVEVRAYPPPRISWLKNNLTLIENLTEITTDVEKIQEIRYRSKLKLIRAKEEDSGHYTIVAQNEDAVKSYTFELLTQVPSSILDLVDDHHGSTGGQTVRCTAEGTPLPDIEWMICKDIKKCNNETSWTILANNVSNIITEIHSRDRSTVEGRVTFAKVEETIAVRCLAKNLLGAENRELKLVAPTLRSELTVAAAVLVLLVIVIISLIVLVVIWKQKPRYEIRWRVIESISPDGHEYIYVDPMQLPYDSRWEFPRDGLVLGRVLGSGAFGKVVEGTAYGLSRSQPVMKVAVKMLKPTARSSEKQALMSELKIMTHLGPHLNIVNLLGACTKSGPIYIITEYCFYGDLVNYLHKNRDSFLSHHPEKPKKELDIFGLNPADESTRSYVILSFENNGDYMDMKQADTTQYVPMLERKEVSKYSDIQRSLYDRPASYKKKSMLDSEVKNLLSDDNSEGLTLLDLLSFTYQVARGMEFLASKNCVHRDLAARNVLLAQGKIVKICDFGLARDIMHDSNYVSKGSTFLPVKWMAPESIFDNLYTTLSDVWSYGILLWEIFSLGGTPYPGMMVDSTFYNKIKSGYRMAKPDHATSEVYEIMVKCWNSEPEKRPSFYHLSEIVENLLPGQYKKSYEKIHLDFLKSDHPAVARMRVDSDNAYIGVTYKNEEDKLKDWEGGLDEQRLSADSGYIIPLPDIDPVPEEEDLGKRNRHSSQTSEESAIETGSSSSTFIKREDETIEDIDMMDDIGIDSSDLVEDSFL
In short: as §1

c-Kit = c-Kit (Homo sapiens (Human), UniProt P10721); test: Inhibition of c-Kit kinase activity (HTRF KinEASE-TK); assay type: biochemical; conditions: biochemical
Chain of c-Kit (P10721 26-976): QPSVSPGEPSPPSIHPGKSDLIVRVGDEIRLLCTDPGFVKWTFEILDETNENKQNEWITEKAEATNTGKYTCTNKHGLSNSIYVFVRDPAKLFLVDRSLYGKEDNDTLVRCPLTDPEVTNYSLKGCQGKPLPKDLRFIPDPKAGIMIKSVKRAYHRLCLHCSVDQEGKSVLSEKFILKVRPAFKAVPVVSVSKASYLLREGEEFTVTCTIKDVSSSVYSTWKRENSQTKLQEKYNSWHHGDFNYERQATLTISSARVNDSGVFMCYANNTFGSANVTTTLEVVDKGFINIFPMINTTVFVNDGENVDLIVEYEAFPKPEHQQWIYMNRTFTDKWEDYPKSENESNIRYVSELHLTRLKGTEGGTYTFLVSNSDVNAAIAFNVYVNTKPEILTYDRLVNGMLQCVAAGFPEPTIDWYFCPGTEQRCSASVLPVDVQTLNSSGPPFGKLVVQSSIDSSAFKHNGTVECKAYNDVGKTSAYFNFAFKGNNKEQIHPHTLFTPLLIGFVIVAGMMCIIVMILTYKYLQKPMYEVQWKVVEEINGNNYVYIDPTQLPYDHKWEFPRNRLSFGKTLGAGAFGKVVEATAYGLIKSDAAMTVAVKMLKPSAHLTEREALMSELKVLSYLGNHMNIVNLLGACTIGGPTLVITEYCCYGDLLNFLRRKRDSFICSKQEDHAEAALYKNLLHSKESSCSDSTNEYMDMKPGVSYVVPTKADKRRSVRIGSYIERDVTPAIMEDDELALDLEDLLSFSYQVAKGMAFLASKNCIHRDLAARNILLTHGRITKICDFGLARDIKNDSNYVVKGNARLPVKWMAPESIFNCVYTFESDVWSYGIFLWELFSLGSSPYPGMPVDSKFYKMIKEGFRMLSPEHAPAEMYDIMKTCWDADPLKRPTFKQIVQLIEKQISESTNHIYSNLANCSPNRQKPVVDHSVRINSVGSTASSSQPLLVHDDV
In short: as §1

[2] = phospho-KIT (Y703), SCF-stimulated M07e cells, read-out: M07e Cell IC50
[3] = Phospho-KIT (Y703), M07e cells, read-out: M07e Cell IC50

Chain of FLT3 (P36888 27-993): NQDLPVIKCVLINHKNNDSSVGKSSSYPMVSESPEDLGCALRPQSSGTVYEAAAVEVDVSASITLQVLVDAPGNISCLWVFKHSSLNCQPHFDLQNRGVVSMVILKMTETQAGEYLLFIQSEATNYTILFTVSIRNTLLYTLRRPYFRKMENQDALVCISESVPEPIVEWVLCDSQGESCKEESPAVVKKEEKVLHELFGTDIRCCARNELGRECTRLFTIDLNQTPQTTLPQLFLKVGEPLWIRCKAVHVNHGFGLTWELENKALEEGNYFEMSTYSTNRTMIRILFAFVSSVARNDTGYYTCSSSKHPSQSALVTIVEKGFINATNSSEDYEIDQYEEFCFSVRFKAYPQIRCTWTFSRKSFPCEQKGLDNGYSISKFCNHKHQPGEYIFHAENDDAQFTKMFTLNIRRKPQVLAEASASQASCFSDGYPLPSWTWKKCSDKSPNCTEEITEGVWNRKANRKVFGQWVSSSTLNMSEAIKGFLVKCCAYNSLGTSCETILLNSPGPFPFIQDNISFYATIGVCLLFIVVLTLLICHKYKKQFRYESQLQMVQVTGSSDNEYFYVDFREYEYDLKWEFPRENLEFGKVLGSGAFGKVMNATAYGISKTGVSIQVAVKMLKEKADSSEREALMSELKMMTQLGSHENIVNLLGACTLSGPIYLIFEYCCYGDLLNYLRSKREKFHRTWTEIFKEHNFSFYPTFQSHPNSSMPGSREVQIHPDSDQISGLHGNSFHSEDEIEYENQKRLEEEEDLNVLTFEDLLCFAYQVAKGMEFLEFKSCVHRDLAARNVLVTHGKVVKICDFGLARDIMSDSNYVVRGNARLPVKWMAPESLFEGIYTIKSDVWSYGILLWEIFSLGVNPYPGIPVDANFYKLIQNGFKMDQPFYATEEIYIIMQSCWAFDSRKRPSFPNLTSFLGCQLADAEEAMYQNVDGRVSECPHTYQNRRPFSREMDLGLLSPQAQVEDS

| Compound | IC50 (FLT3) [µM] | IC50 (CSF1R) [µM] | IC50 (PDGFRβ) [µM] | IC50 [1, 2] [µM] | IC50 (PDGFRα) [µM] | IC50 (c-Kit) [µM] | IC50 (FLT3; HTRF KinEASE-TK) [µM] | IC50 (CSF1R; HTRF KinEASE-TK) [µM] | IC50 (PDGFRβ; HTRF KinEASE-TK) [µM] | IC50 [1, 3] [µM] | IC50 (PDGFRα; HTRF KinEASE-TK) [µM] | IC50 (c-Kit; HTRF KinEASE-TK) [µM] | IC50 ([1]; M07e cells, read-out: Phospho-KIT (Y703) cellular IC50) [µM] | IC50 ([1]; read-out: M07e Cell IC50) [µM] |
| --- | --- | --- | --- | --- | --- | --- | --- | --- | --- | --- | --- | --- | --- | --- |
| Cc1cc(F)c(C(=O)Nc2ccc(CC3CC3)cn2)cc1NC(=O)c1cnc(N)s1 [Example 7, 2-Amino-N-[5-[[5-(cyclopropylmethyl)pyridin-2-yl]carbamoyl]-4-fluoro-2-methylphenyl]-1,3-thiazole-5-carboxamide] | > 1 | 0.1 to 1 | < 0.1 | < 0.1 | 0.1 to 1 | < 0.1 |  |  |  |  |  |  |  |  |
| Cc1cc(F)c(C(=O)Nc2ccn(C3CCOCC3)n2)cc1NC(=O)c1cnc(N)s1 [Example 150, 2-Amino-N-[4-fluoro-2-methyl-5-[[1-(oxan-4-yl)pyrazol-3-yl]carbamoyl]phenyl]-1,3-thiazole-5-carboxamide] |  |  |  |  |  |  | > 1 | > 1 | > 1 | < 0.1 | > 1 | < 0.1 |  |  |
| COC1(c2ccc(NC(=O)c3cc(NC(=O)c4cnc(N)s4)c(C)cc3F)nc2)CC1 [Example 260, 2-Amino-N-[4-fluoro-5-[[5-(1-methoxycyclopropyl)pyridin-2-yl]carbamoyl]-2-methylphenyl]-1,3-thiazole-5-carboxamide] |  |  |  |  |  |  | > 1 | 0.1 to 1 | 0.1 to 1 |  | > 1 | < 0.1 | < 0.1 |  |
| Nc1ncc(C(=O)Nc2cc(C(=O)Nc3ccc(OCC(F)F)cn3)c(F)cc2F)s1 [Example 213, 2-Amino-N-[5-[[5-(2,2-difluoroethoxy)pyridin-2-yl]carbamoyl]-2,4-difluorophenyl]-1,3-thiazole-5-carboxamide] |  |  |  |  |  |  | > 1 | > 1 | > 1 | < 0.1 | > 1 | < 0.1 |  |  |
| CCOCc1ccc(NC(=O)c2cc(NC(=O)c3cnc(N)s3)c(C)cc2F)nc1 [Example 196, 2-Amino-N-[5-[[5-(ethoxymethyl)pyridin-2-yl]carbamoyl]-4-fluoro-2-methylphenyl]-1,3-thiazole-5-carboxamide] |  |  |  |  |  |  | > 1 | > 1 | > 1 | < 0.1 | > 1 | < 0.1 |  |  |
| Cc1ncc(C(=O)Nc2cc(C(=O)Nc3ccc(COC(F)F)cn3)c(F)cc2C)s1 [Example 78, N-[5-[[5-(difluoromethoxymethyl)pyridin-2-yl]carbamoyl]-4-fluoro-2-methylphenyl]-2-methyl-1,3-thiazole-5-carboxamide] |  |  |  |  |  |  | > 1 | > 1 | > 1 |  | > 1 | < 0.1 |  | < 0.1 |
| Cc1ncc(C(=O)Nc2cc(C(=O)Nc3cnc(N4CCC[C@@H]4C(F)(F)F)cn3)c(F)cc2C)s1 [Example 96, N-[4-fluoro-2-methyl-5-[[5-[(2R)-2-(trifluoromethyl)pyrrolidin-1-yl]pyrazin-2-yl]carbamoyl]phenyl]-2-methyl-1,3-thiazole-5-carboxamide] |  |  |  |  |  |  | > 1 | > 1 | > 1 | < 0.1 | > 1 | < 0.1 |  |  |
| COCc1ccc(NC(=O)c2cc(NC(=O)c3cnc(N)s3)c(C)cc2F)nc1 [Example 10, 2-Amino-N-[4-fluoro-5-[[5-(methoxymethyl)pyridin-2-yl]carbamoyl]-2-methylphenyl]-1,3-thiazole-5-carboxamide] | > 1 | > 1 | > 1 | < 0.1 | > 1 | < 0.1 |  |  |  |  |  |  |  |  |
| Nc1ncc(C(=O)Nc2cc(C(=O)Nc3ccc(C(F)F)cn3)c(F)cc2F)s1 [Example 217, 2-Amino-N-[5-[[5-(difluoromethyl)pyridin-2-yl]carbamoyl]-2,4-difluorophenyl]-1,3-thiazole-5-carboxamide] |  |  |  |  |  |  | > 1 | > 1 | > 1 | < 0.1 | > 1 | < 0.1 |  |  |
| Cc1ncc(C(=O)Nc2cc(C(=O)N[C@@H]3C[C@H]3c3ccccc3)c(F)cc2C)s1 [Example 31, N-[4-Fluoro-2-methyl-5-[[(1R,2S)-2-phenylcyclopropyl]carbamoyl]phenyl]-2-methyl-1,3-thiazole-5-carboxamide] |  |  |  |  |  |  | > 1 | > 1 | > 1 | < 0.1 | > 1 | < 0.1 |  |  |
| Cc1cc(F)c(C(=O)Nc2ccn(C(C)C)n2)cc1NC(=O)c1cnc(N)s1 [Example 158, 2-Amino-N-[4-fluoro-2-methyl-5-[(1-propan-2-ylpyrazol-3-yl)carbamoyl]phenyl]-1,3-thiazole-5-carboxamide] |  |  |  |  |  |  | > 1 | > 1 | 0.1 to 1 | < 0.1 | 0.1 to 1 | < 0.1 |  |  |
| Cc1ncc(C(=O)Nc2cc(C(=O)Nc3ccc(OC(C)C)cn3)c(F)cc2C)s1 [Example 40, N-[4-fluoro-2-methyl-5-[(5-propan-2-yloxypyridin-2-yl)carbamoyl]phenyl]-2-methyl-1,3-thiazole-5-carboxamide] |  |  |  |  |  |  | > 1 | > 1 | > 1 | < 0.1 | > 1 | < 0.1 |  |  |
| Cc1ncc(C(=O)Nc2cc(C(=O)Nc3cnc(OCC(F)F)cn3)c(F)cc2C)s1 [Example 86, N-{5-[N-5-(2,2-difluoroethoxy)-2-pyrazinylcarbamoyl]-4-fluoro-2-tolyl}-2-methyl-1,3-thiazole-5-carboxamide] |  |  |  |  |  |  | > 1 | > 1 | > 1 | < 0.1 | 0.1 to 1 | < 0.1 |  |  |
| Nc1ncc(C(=O)Nc2cc(C(=O)Nc3cnc(C4CC4)cn3)c(F)cc2Cl)s1 [Example 205, 2-Amino-N-[2-chloro-5-[(5-cyclopropylpyrazin-2-yl)carbamoyl]-4-fluorophenyl]-1,3-thiazole-5-carboxamide] |  |  |  |  |  |  | > 1 | < 0.1 | < 0.1 | < 0.1 | 0.1 to 1 | < 0.1 |  |  |
| Cc1cc(F)c(C(=O)Nc2ccn(-c3ccccc3)n2)cc1NC(=O)c1cnc(N)s1 [Example 172, 2-Amino-N-[4-fluoro-2-methyl-5-[(1-phenylpyrazol-3-yl)carbamoyl]phenyl]-1,3-thiazole-5-carboxamide] |  |  |  |  |  |  | > 1 | > 1 | > 1 | < 0.1 | > 1 | < 0.1 |  |  |
| CO[C@H]1C[C@@H](NC(=O)c2cc(NC(=O)c3cnc(N)s3)c(C)cc2F)C1 [Example 123, 2-Amino-N-[4-fluoro-5-[(3-methoxycyclobutyl)carbamoyl]-2-methylphenyl]-1,3-thiazole-5-carboxamide] |  |  |  |  |  |  | > 1 | > 1 | > 1 | < 0.1 | > 1 | < 0.1 |  |  |
